Source: PubChem BioAssay AID812 (SRMLSC, 2007)
pEC50: −log10 of the molar value. Calls of active or inactive are those of the source. The rule behind the calls is not given here.

Each molecule was assayed on Saccharomyces cerevisiae lifespan extension, no nicotinamide (assay: yeast lifespan extension without nicotinamide, confirmation, yeast lifespan extension project, S. cerevisiae (AID 812);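 note: growth read as optical density after 42 hours of incubation at 30C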).
`CC1C/C(=C\c2cccnc2)C(=O)/C(=C/c2cccnc2)C1` (stereo unspecified) was tested, and the EC50 was > 40 µM (inactive). With `C[C@]12CC[C@@H]3c4ccc(O)cc4CC[C@H]3[C@@H]1CC[C@@H]2OC(=O)CCC(=O)O` the EC50 was > 40 µM (inactive). With `COc1ccc2c(=O)c3c(=O)n(Cc4ccco4)c(-c4ccco4)nc3oc2c1` the EC50 was > 40 µM (inactive). For `CCSc1ccccc1C(=O)n1nnc2ccccc21`, the EC50 was > 40 µM (inactive). In the case of `CCCn1c(C)cc(C(=O)COc2ncnc3sccc23)c1C`, the EC50 was > 40 µM (inactive). In the case of `COc1ccc(OC)c(NC(=S)N2CCN(C/C=C/c3ccccc3)CC2)c1`, the EC50 was > 40 µM (inactive). For `Cc1nn(C(C)(C)C)c(OC(=O)c2ccc(Br)o2)c1Sc1ccccc1`, the EC50 was > 40 µM (inactive). `Cc1ccc(/C=C/C(=O)C2C(=O)c3ccccc3C2=O)cc1` was tested, and the EC50 was > 40 µM (inactive). With `CC(=O)C(C(C)=O)c1c(Cl)c(O)c(O)c2c(C(=O)c3ccccc3)coc12` the EC50 was > 40 µM (inactive). For `CC1(C)Oc2ccccc2OC1(O)c1ccc2ccccc2n1` (stereo unspecified), the EC50 was > 40 µM (inactive). With `COc1cc(OC)cc(-c2nc3ccccc3c(=O)n2OC(=O)c2ccc(C)c(C)c2)c1` the EC50 was > 40 µM (inactive). With `CCOc1ccc(/C=C2/C(=O)NC(=O)N(CCc3ccc(F)cc3)C2=O)cc1` the EC50 was > 40 µM (inactive). `O=C1Nc2ccccc2C12OCC1(CO2)COC2(OC1)C(=O)Nc1ccccc12` (stereo unspecified) was tested, and the EC50 was > 40 µM (inactive). `CCOC(=O)c1ccccc1N1C(=O)CSC1=S` was tested, and the EC50 was > 40 µM (inactive). `C=C(CC)C(=O)c1ccc(OCC(=O)O)c(Cl)c1Cl` was tested, and the EC50 was > 40 µM (inactive). For `CC(=O)Oc1c(C(=O)c2nnc(C)o2)c(=O)n(C)c2ccccc12`, the EC50 was > 40 µM (inactive). In the case of `Cc1cc(C)cc(CC2CC(=O)N(c3ccc(Cl)cn3)C2=O)c1` (stereo unspecified), the EC50 was > 40 µM (inactive). For `COc1ccc(CNC(=O)c2c(O)c3cccc4c3n(c2=O)CCC4)cc1`, the EC50 was > 40 µM (inactive). For `Cc1ccc(CNc2nc3ccccc3s2)s1`, the EC50 was > 40 µM (inactive). In the case of `Cc1ccc2nc(-c3ccc(NC(=O)CSc4ccccc4)cc3)[nH]c2c1`, the EC50 was > 40 µM (inactive). In the case of `O=C(CCl)N1c2ccccc2OCC1c1ccccc1` (stereo unspecified), the EC50 was > 40 µM (inactive). For `O=C(/C=C/c1ccccc1)C1C(=O)c2ccccc2C1=O`, the EC50 was > 40 µM (inactive). In the case of `CCCCCCCCn1c(=O)c(C(=O)OCC)c(O)c2ccccc21`, the EC50 was > 40 µM (inactive). In the case of `COc1ccccc1C(=O)Oc1ccc2c(c1)O/C(=C\c1ccncc1)C2=O`, the EC50 was > 40 µM (inactive). With `CN1C/C(=C/c2cccnc2)C(=O)/C(=C/c2cccnc2)C1` the EC50 was > 40 µM (inactive). In the case of `CCc1nnc(NC(=O)c2cccc(S(=O)(=O)N(C)c3ccccc3)c2)s1`, the EC50 was > 40 µM (inactive). In the case of `O=C(Oc1cc(=O)n2ccccc2n1)c1ccccc1`, the EC50 was > 40 µM (inactive). For `CCOC(=O)COc1ccccc1/C=C\[N+](=O)[O-]`, the EC50 was > 40 µM (inactive). With `COc1ccc(C(CNC(=O)c2cccc(Br)c2)N2CCCC2)cc1` (stereo unspecified) the EC50 was > 40 µM (inactive). With `COc1ccc(N(C(=O)C(C)C)S(=O)(=O)c2ccc(Cl)cc2)cc1` the EC50 was > 40 µM (inactive). In the case of `O=C(NCc1ccc(Cl)cc1)c1ccccc1CCc1ccccc1`, the EC50 was > 40 µM (inactive). In the case of `CCCn1c(SCC(=O)c2ccc3c(c2)NC(=O)CO3)nc2ccccc21`, the EC50 was > 40 µM (inactive). With `O=[N+]([O-])c1c(C(Cl)Cl)nn(-c2ccccc2)c1N1CCCC1` the EC50 was > 40 µM (inactive). For `COc1cccc(C(=O)Oc2cc(N)n(S(=O)(=O)c3ccc(C)cc3)n2)c1OC`, the EC50 was > 40 µM (inactive). In the case of `Cc1cc(C)c(S(=O)(=O)c2ccccc2)c(OC(=O)c2cc(F)c(F)cc2Cl)n1`, the EC50 was > 40 µM (inactive). In the case of `COc1ccccc1N(CN1CCCC1=O)C(=O)c1c(F)cccc1F`, the EC50 was > 40 µM (inactive). For `O=S1(=O)C=C(Sc2nnc(-c3ccccc3)o2)c2ccccc21`, the EC50 was > 40 µM (inactive). `CCN(CCO)C(=O)C12CCC(C)(C(=O)C1)C2(C)C` (stereo unspecified) was tested, and the EC50 was > 40 µM (inactive). `CCCCn1c(=O)c2c(O)cc(=O)oc2c2ccccc21` was tested, and the EC50 was > 40 µM (inactive). For `COCCCN(C(=S)Nc1cc(Cl)cc(Cl)c1)C(C)c1ccncc1` (stereo unspecified), the EC50 was > 40 µM (inactive). For `COCCn1c(SCC(=O)Nc2ccc(C)cc2)nc2c(oc3ccccc32)c1=O`, the EC50 was > 40 µM (inactive). For `CCn1ccc(C(=O)Nc2ccc(S(=O)(=O)Nc3ccccc3OC)cc2)n1`, the EC50 was > 40 µM (inactive). `COc1ccc(-c2cc(N)n(S(=O)(=O)c3c(F)c(F)c(F)c(F)c3F)n2)cc1OC` was tested, and the pEC50 was 4.58. For `Cc1ncc(C23CC4CC(CC(C4)C2)C3)[nH]1`, the EC50 was > 40 µM (inactive). `Cc1ccc(C(=O)c2no[n+]([O-])c2C(=O)c2ccc(C)cc2)cc1` was tested, and the EC50 was > 40 µM (inactive). In the case of `Cc1ccc(/C=C2/C(=O)NC(=O)N(CCc3ccc(F)cc3)C2=O)o1`, the EC50 was > 40 µM (inactive). In the case of `C[C@]12CC[C@@H](O)C[C@@H]1CC[C@@H]1[C@@H]2CC[C@]2(C)[C@@H](O)CC[C@@H]12`, the EC50 was > 40 µM (inactive). With `Cc1cc(C)nc(SCc2cc(=O)c(OC(=O)c3ccc(Br)o3)co2)n1` the EC50 was > 40 µM (inactive). With `CCCC(=O)Nc1ccccc1Sc1ncnc2scc(-c3ccccc3)c12` the EC50 was > 40 µM (inactive). In the case of `CCOc1ccc(C2=NNC(c3cccs3)=Nc3ccc(OCC)cc32)cc1`, the EC50 was > 40 µM (inactive). In the case of `O=C1/C(=C/c2cccnc2)CCC/C1=C\c1cccnc1`, the EC50 was > 40 µM (inactive). `Cc1ccc(N/C(C(Cl)=C(Cl)Cl)=C(/Cl)[N+](=O)[O-])c(C)c1` was tested, and the EC50 was > 40 µM (inactive). `O=C1c2ccccc2C(=O)N1c1ncc(Cc2ccc(Cl)cc2)s1` was tested, and the EC50 was > 40 µM (inactive). For `CC(C)OCCCNS(=O)(=O)c1ccc2ccccc2c1`, the EC50 was > 40 µM (inactive). `Cc1cc(N=Cc2c(O)ccc3ccccc23)no1` was tested, and the EC50 was > 40 µM (inactive). For `COc1ccc(C(C)NC(=O)c2ccccc2)cc1` (stereo unspecified), the EC50 was > 40 µM (inactive). `CC(C)c1noc2ncc(C(=O)c3cc(Cl)cc(Cl)c3O)cc12` was tested, and the EC50 was > 40 µM (inactive). In the case of `CC[n+]1c(/C=C2\C=C(C)CC(C)(C)C2)sc2ccccc21`, the EC50 was > 40 µM (inactive). For `Cc1ccc(C(=O)OC2=CC(=O)CC(C)(C)C2)cc1`, the EC50 was > 40 µM (inactive). With `Cc1cc(C)n(-c2ccc(OCC(=O)O)nn2)n1` the EC50 was > 40 µM (inactive). For `Cc1cc(C2C(C#N)=C(N)Oc3n[nH]c(C)c32)c(C)s1` (stereo unspecified), the EC50 was > 40 µM (inactive). `CCCCC(=Nc1ccc(N)cc1)C1=C(O)C(C(=O)OC)C(C)(C)CC1=O` (stereo unspecified) was tested, and the EC50 was > 40 µM (inactive). With `CCOc1ccc(NCc2nc3ccccc3n2CCOc2ccccc2)cc1` the EC50 was > 40 µM (inactive). In the case of `COc1ccc(CC(=O)Nc2ccc3c(c2)CCC3)cc1S(=O)(=O)N1CCOCC1`, the EC50 was > 40 µM (inactive). In the case of `O=c1cc(-c2c(F)c(F)c(F)c(F)c2F)oc2c(F)c(F)c(F)c(F)c12`, the EC50 was > 40 µM (inactive). With `CCCCOC(=O)n1c(=O)oc2cc(S(=O)(=O)N3CCCCC3)ccc21` the EC50 was > 40 µM (inactive). `CCn1c(/C=N/c2nc3ccccc3n2C)nc2ccccc21` was tested, and the EC50 was > 40 µM (inactive). `CCOC(=O)C1=C(C)Nc2nc(=S)[nH]n2C1c1ccc(Cl)cc1` (stereo unspecified) was tested, and the EC50 was > 40 µM (inactive). For `CCCCn1c(/N=C/c2ccccc2NS(=O)(=O)c2ccc(C)cc2)nc2ccccc21`, the EC50 was > 40 µM (inactive). `COC(=O)c1cc(=O)n(-c2ccccc2)c(=Nc2ccccc2)s1` was tested, and the EC50 was > 40 µM (inactive). For `COc1cccc(C2CC3C(=O)C=CC2N3Cc2ccccc2)c1` (stereo unspecified), the EC50 was > 40 µM (inactive).
